One experiment concerns Hela cells. Briefly: Western blot of autophagy markers (autophagy flux) in Hela wild-type and TLK2 KO cells. The class given is cell-based. The note with it: 6 hours. Here is the method: Hela cells were collected, and were added in an RIPA lysis buffer added with a protease inhibitor and PMSF (50 mM Tris, 150 mM NaCl, 1% Triton X-100, 1% sodium deoxytholate and 0.1% SDS) for lysis on ice for 30 min. Subsequently, ultrasonication was performed on ice under the conditions of 40 w 3 sec on/3 sec off for 1 minute, centrifugation was performed at 12,000 rpm in a centrifugal machine at 4° C. for 15 min, a supernatant was collected, diluted by an SDS sample-loading buffer and stewed at 95° C. for 5 min. […] of a protein sample was loaded, and gel electrophoresis was performed under a constant voltage of 80 V When bromophenol blue reached the bottom, membrane transfer was performed overnight at a constant current of 130 mA to transfer the protein from a gel onto a PVDF membrane. The membrane was blocked with 5% skim milk at room temperature for 1 hour, and was washed with TBST for three times, with 5 min for each time. A primary antibody properly diluted was incubated overnight at 4° C., and washed with TBST for three times, with 5 min for each time. An HRP secondary antibody was diluted in 1:10000, incubated at room temperature for 1 hour, and washed with TBST for three times, with 5 min for each time. Western blot was developed by ECL chemiluminescence.
In TLK2 KO cells, the LC3-II/LC3-I ratio was increased, and a P62 protein level was reduced (FIG. 14). […] The autophagy is a dynamic process, for which a level may be elevated accurately through a process of testing an autophagy flux. By using a drug to activate or block an autophagy pathway, the autophagy flux smoothness could be evaluated.
Raparnycin (Rapa) was used for activating the autophagy, and bafilomycin A1 (Baf A1) was used for inhibiting the autophagy. Cells were treated with Raparnycin (Rapa, 40 nM) and bafilomycin A1 (Baf A1, 100 nM) for 6 hours, respectively. […] This indicated smooth autophagy flux in the TLK2 KO cells.
For orientation: In western blotting, separated proteins are transferred to a membrane and probed.

In experiment [1] the test system is cell calcium-overload model. Briefly: Drug screening in a cell calcium-overload model (LDH assay). The conditions noted are these: screening of micro-molecule library, PMZ as positive control. In kind it is cell-based. The source says:
The culture solution was removed, and the cells were washed with PBS. A fresh culture solution was used (it was recommended to use a low serum culture solution containing 1% serum or a suitable serum-free culture solution), and various culture wells were divided into the following groups: cell-free culture solution wells (background blank control wells), control cell wells not treated with a drug (sample control wells), cell wells used for subsequent lysis, not treated with a drug (maximum sample enzyme activity control wells), and drug-treated cell wells (drug-treated sample wells), and these wells were labeled properly.
Proper drug treatment was provided according to experiment requirements, for example, about 0-10 μL of a specific drug was added for stimulation; different concentrations and different treatment time could be set, and suitable drug solvent was required to be added to the control wells for continued culture as routine against the control. At 1 hour before a predetermined testing time point, the cell culture plate was taken out of a cell incubator, an LDH release reagent provided by a reagent kit was added to the “maximum sample enzyme activity control wells”, and the addition amount was equal to 10% of the volume of the original culture solution. After the addition of the LDH release reagent, the cells were blown repeatedly for several times for uniform mixing, and then were incubated in the cell incubator.
After the predetermined time expired, the cell culture plate was centrifuged with a multi-well plate centrifugal machine at 400 g for 5 min. 120 μL of a supernatant was respectively taken from each well and added to corresponding wells of a new 96-well plate for subsequent sample testing. 60 μL of an LDH test working solution was respectively added to each well. […] Then, absorbance was measured at 490 nm. […] Calculation was performed (the background blank control well absorbance was deducted from the measured absorbance of each group). […]

The subject of experiment [2] is TLK2. The experiment can be described thus: Purified GST-TLK2 incubated with lysis buffer of ionomycin-treated (calcium-overload) Hela cells: Commassie staining, phos-tag SDS-PAGE, mass spectrometry. The class given is biochemical. Here is the method: TLK2 cDNA was cloned to a PGEX-6P-1 vector containing a GST tag, a recombinant plasmid was expressed into BL21 chemical competent cells for induced expression at 180 rpm at 20° C. for 20 hours under an induction condition of 0.5 mM IPTG. GST-TLK2 was purified according to the standard steps of Beyotime GST tag protein purification kit. Hela cells were treated with 17 μM ionomycin for 3 hours, and when a cell density reached 70%, the cells were collected. Lysis was performed in a lysis buffer (10 mM Tris, 150 mM NaCl, 2 mM EDTA and 0.5% TritonX-100). Centrifugation was performed at 12,000 rmp at 4° C. for 15 min, and a supernatant was collected. 3 μg of a GST-TLK2 purified protein and 200 μg of a cell lysis buffer were mixed, and placed overnight in a vertical shaker at 4° C. Subsequently, Glutathione. Sepharose 4B condensate beads were added, and rotation proceeded at room temperature for 1 hour. The mixture was washed with WB and IP lysis buffers for 6 times, each of which the mixture was centrifugated in a centrifugal machine at 2,000 rmp at 4° C. for 5 min. The product was diluted by an SDS sample-loading buffer and stewed at 95° C. for 5 min, or a TLK2 protein was cleaved overnight by PreScission Protease at 4° C. The final result was obtained by Commassie staining.
The purified TLK2 protein was incubated with a cell lysis buffer (inducing calcium overload) treated with ionomycin or a normal cell lysis buffer. […] Similar change also appeared after the TLK2 protein was incubated with a TLK2 KO cell lysis buffer treated with the ionomycin.
TLK2 cDNA was cloned to a PGEX-6P-1 vector containing a GST tag, a recombinant plasmid was expressed into BL21 chemical competent cells for induced expression at 180 rpm at 20° C. for 20 hours under an induction condition of 0.5 mM IPTG. GST-TLK2 was purified according to the standard steps of Beyotime GST tag protein purification kit. […]
Phos-tag was a functional molecule which could be in specific binding with phosphate ions. […] The content of the phosphorylated protein could be analyzed by the change in the migration rate. […]

Experiment [3] has as its system TLK2. Briefly: In-vitro kinase experiment (ATP consumption, MBP substrate). In kind it is biochemical. The conditions noted are these: TLK2+Ionomycin group compared with normal treatment group. Here is the method:
1 μL of ATP (0.2 mM), 1 μg of a TLK2 purified protein and 20 μg of a substrate were added to a 50 μL reaction system, the remaining volume was supplemented with a kinase buffer (10 mM Tris pH 7.5, 50 mM KCL, 10 mM MgCl2 and 1 mM DTT), and a reaction was performed at room temperature for 15 min. An MBP protein was taken as a positive control substrate, and a PGK1 protein was taken as a negative control substrate. 50 ul of a Kinase-Lumi™ superstrong chemiluminescence kinase assay reagent was added and uniformly mixed to have a reaction in the dark at room temperature for 10 min. Then, a multifunctional microplate reader was used for chemiluminescence testing.
TLK2 kinase activity was verified by an in-vitro kinase experiment. In the in-vitro kinase experiment, a myelin basic protein (MBP) could be used as a substrate for multiple kinases, a group to which a TLK2 (No TLK2) protein was not added was taken as a control, and in a normal treatment (TLK2+Control) and an ionomycin treatment group (TLK2+Ionomycin), the same amount of the TLK2 protein reacted with the same amount of the MBP protein. A reduced ATP level reflected the TLK2 kinase activity.

Setting [4] is: wild-type Hela cells, Rapa 40 nM or Baf A1 100 nM.
Setting [5] is: lysis buffer of Hela cells treated with 17 μM ionomycin for 3 hours.

Consider `CO[C@H]1C[C@@H]2CC[C@@H](C)[C@@](O)(O2)C(=O)C(=O)N2CCCC[C@H]2C(=O)O[C@H]([C@H](C)C[C@@H]2CC[C@@H](O)[C@H](OC)C2)CC(=O)[C@H](C)/C=C(\C)[C@@H](O)[C@@H](OC)C(=O)[C@H](C)C[C@H](C)/C=C/C=C/C=C/1C` [Rapa, Raparnycin], for which the P62 protein level entry in the experiment with Hela cells (TLK2 KO Hela cells, Rapa 40 nM) was “further reduce”; with Hela cells (setting [4]), “reduced”. Besides, in the experiment with Hela cells (setting [4]), the LC3-II/LC3-I ratio entry was “increased”.

As for `O=C(O[C@@H]1Cc2c(O)cc(O)cc2O[C@@H]1c1cc(O)c(O)c(O)c1)c1cc(O)c(O)c(O)c1` [Epigallocatechin Gallate], the “calcium-overload injury inhibition activity” value in experiment [1] was “had calcium-overload injury inhibition activity”.

For `C[C@H](CCC(=O)O)C[C@H](C)C[C@H](C)C(=O)/C=C(\O)[C@H](C)C[C@H](C)C/C=C/[C@@H](C)[C@@H](O)[C@@H](C)[C@@H](O)C[C@@H]1CC[C@@](C)([C@H]2CC[C@@](C)([C@@H](C)O)O2)O1` [ionomycin, Ionomycin], in the experiment with TLK2 [2] (setting [5]), the “GST-TLK2 protein band (Commassie staining)” value is recorded as “moved upward” and the “additional TLK2 phosphorylation sites compared with the control group (mass spectrometry)” value is 15. Moreover, in the experiment with TLK2 [2] (normal and TLK2 KO cell lysis buffer after 17 μM ionomycin, 3 hours), the “TLK2 phosphorylation (phos-tag SDS-PAGE)” value is “could promote TLK2 phosphorylation”. In addition, the “TLK2 kinase activity (ATP consumption)” value in the experiment with TLK2 [3] is “could consume much ATP”.

`CC[C@@H]1C(=O)N(C)c2cnc(Nc3ccc(C(=O)N[C@H]4CC[C@H](N5CCN(CC6CC6)CC5)CC4)cc3OC)nc2N1C(C)C` [Volasertib]: the “calcium-overload injury inhibition activity” value in experiment [1] is on record as “had calcium-overload injury inhibition activity”.

Turning to `CO/C1=C\C(C)=C\[C@@H](C)[C@@H](O)[C@@H](C)C/C(C)=C/C=C/[C@H](OC)[C@@H]([C@@H](C)[C@@H](O)[C@H](C)[C@@]2(O)C[C@@H](O)[C@H](C)[C@@H](C(C)C)O2)OC1=O` [Baf A1, bafilomycin A1], the “autophagy activated by TLK2 KO” value in the experiment with Hela cells (TLK2 KO Hela cells, Baf A1 100 nM) is listed as “blocked”. Moreover, in the experiment with Hela cells (setting [4]), the LC3-II/LC3-I ratio result is on record as “elevated” and the P62 protein level result is “elevated”.

Regarding `O=c1[nH]c(C2CCCN2)nc2c1oc1ccc(Cl)cc12` (stereo not shown) [XL413], the “calcium-overload injury inhibition activity” value in experiment [1] was “had calcium-overload injury inhibition activity”.
